What was measured:
[1] = DRUGMATRIX: GABAA, Flunitrazepam, Central radioligand binding (ligand: [3H] Flunitrazepam); assay type: cell membranes, Rattus norvegicus, Wistar, Brain, Membrane; details: Not Active = under 50% inhibition at 10 µM
[2] = biological target: T1, Muscarinic acetylcholine receptor M5 (Homo sapiens, UniProt P08912); assay type: cell membranes, CHO-K1, Membrane; also: in other assays of this panel Not Active means under 50% inhibition at 10 µM
T1 sequence (P08912 whole entry): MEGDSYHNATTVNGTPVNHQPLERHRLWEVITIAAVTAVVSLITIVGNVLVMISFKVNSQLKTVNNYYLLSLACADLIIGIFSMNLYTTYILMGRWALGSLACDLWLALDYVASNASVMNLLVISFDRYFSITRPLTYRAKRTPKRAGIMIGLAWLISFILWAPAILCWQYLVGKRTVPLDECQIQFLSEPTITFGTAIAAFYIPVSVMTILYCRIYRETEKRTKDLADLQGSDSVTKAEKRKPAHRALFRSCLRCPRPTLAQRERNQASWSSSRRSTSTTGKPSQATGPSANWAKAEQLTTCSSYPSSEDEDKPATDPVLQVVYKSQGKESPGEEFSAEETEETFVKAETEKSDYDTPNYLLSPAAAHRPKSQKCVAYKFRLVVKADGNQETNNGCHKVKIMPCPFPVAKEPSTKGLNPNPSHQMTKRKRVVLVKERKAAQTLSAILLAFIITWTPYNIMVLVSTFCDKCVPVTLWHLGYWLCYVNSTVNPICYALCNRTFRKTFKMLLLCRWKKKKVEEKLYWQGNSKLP

[3] = biological target: Sodium-dependent noradrenaline transporter (Homo sapiens, UniProt P23975); assay: DRUGMATRIX: Norepinephrine Transporter radioligand binding (ligand: [125I] RTI-55); assay type: cell membranes, MDCK, Membrane; details: mdck; Not Active = under 50% inhibition at 10 µM
[4] = DRUGMATRIX: Glutamate, NMDA, Agonism radioligand binding (ligand: [3H] CGP-39653); assay type: cell membranes, Rattus norvegicus, Wistar, Cerebral cortex, Membrane; details: Not Active = under 50% inhibition at 10 µM
[5] = biological target: Estrogen receptor beta (Homo sapiens, UniProt Q92731); details: sf9; also: in other assays of this panel Not Active means under 50% inhibition at 10 µM
Chain of Estrogen receptor beta (Q92731 whole entry): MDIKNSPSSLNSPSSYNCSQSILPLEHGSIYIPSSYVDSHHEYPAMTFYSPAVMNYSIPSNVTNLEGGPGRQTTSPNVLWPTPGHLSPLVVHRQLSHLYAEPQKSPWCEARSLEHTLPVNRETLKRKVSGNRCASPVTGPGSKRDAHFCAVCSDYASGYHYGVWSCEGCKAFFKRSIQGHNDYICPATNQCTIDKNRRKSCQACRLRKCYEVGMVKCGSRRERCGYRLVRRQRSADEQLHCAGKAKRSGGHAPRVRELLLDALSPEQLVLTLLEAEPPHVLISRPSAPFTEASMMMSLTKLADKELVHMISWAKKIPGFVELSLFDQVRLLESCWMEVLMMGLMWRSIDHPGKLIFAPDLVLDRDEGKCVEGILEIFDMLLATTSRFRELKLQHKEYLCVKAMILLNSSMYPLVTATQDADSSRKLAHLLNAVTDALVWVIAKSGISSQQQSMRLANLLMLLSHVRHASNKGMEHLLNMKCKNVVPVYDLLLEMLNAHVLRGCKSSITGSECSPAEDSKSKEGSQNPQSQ

[6] = biological target: Nitric oxide synthase 1 (Rattus norvegicus, UniProt P29476); assay type: tissue-based, Cerebellum; also: in other assays of this panel Not Active means under 50% inhibition at 10 µM
Chain of Nitric oxide synthase 1 (P29476 whole entry): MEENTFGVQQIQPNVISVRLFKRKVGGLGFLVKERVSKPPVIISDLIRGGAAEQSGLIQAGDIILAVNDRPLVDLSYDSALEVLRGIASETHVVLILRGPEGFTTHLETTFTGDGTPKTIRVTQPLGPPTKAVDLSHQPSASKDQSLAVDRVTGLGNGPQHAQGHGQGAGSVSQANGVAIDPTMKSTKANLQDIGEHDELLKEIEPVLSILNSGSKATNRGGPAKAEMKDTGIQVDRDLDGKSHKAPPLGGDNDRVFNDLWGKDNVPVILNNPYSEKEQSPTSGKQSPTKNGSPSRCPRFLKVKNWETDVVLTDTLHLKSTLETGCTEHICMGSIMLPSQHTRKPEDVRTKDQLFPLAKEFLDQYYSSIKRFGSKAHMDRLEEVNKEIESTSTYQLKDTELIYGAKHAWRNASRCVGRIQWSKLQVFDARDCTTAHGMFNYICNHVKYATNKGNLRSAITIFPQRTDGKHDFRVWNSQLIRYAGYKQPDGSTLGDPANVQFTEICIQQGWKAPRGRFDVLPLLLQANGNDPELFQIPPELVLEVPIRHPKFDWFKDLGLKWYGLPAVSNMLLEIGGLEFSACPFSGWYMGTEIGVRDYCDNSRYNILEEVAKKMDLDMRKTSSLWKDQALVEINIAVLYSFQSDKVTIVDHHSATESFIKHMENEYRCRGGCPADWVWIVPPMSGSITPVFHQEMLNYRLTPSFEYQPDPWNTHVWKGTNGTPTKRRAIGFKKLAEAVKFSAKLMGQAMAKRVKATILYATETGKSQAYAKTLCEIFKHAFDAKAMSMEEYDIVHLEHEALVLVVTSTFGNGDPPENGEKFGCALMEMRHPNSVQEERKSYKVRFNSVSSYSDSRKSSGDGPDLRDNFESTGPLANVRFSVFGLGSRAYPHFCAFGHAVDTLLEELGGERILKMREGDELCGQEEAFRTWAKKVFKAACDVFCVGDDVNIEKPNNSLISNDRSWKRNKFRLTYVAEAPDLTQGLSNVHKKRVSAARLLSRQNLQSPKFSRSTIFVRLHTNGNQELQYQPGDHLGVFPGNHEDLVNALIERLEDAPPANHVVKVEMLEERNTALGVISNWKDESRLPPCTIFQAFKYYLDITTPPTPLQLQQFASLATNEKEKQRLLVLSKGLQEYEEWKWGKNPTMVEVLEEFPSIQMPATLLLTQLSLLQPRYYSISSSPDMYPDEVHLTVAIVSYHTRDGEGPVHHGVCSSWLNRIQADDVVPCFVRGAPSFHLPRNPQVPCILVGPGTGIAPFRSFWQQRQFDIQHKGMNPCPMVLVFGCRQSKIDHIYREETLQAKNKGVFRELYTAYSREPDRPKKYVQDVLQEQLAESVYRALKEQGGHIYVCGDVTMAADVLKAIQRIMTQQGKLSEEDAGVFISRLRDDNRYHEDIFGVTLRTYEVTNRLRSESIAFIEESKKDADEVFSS

[7] = biological target: T2, Estrogen receptor (Homo sapiens, UniProt P03372); details: sf9; also: in other assays of this panel Not Active means under 50% inhibition at 10 µM
T2 sequence (P03372 whole entry): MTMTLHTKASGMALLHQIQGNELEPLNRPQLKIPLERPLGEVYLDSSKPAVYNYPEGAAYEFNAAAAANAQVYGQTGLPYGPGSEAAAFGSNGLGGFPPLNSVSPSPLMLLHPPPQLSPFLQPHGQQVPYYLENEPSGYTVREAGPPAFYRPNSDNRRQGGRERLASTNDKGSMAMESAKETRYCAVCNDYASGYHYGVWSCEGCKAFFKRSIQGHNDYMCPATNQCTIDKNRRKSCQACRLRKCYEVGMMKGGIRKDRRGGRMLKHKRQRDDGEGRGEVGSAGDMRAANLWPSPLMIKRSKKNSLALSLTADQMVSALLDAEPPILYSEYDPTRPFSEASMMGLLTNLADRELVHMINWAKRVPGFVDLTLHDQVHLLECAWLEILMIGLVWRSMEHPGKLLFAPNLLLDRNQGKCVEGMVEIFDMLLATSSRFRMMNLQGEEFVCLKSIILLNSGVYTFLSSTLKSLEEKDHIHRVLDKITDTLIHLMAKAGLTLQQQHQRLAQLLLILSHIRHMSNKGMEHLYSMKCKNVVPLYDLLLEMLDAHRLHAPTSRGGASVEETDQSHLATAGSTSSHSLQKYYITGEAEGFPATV

[8] = biological target: Cytochrome P450 2C19 (Homo sapiens, UniProt P33261); details: bti-tn-5b1-4; also: in other assays of this panel Not Active means under 50% inhibition at 10 µM
Chain of Cytochrome P450 2C19 (P33261 whole entry): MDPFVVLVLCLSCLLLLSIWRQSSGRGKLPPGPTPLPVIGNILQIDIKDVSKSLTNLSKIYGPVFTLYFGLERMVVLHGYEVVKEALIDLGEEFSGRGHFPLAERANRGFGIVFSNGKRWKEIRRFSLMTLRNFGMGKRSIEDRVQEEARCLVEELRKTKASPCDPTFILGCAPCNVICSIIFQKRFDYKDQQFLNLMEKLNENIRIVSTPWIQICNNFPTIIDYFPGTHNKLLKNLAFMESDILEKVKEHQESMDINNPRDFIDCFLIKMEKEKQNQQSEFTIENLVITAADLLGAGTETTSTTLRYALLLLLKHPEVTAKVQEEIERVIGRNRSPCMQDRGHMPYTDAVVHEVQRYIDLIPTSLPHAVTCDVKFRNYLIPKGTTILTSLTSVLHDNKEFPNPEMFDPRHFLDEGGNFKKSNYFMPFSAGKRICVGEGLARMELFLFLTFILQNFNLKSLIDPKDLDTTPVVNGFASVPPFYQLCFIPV

[9] = DRUGMATRIX: Potassium Channel [KATP] radioligand binding (ligand: [3H] Glyburide); assay type: cell membranes, Membrane; details: hit-t15; Not Active = under 50% inhibition at 10 µM
[10] = biological target: 5-hydroxytryptamine receptor 2B (Homo sapiens, UniProt P41595); assay type: cell membranes, CHO-K1, Membrane; details: cho-k1; also: in other assays of this panel Not Active means under 50% inhibition at 10 µM
Chain of 5-hydroxytryptamine receptor 2B (P41595 whole entry): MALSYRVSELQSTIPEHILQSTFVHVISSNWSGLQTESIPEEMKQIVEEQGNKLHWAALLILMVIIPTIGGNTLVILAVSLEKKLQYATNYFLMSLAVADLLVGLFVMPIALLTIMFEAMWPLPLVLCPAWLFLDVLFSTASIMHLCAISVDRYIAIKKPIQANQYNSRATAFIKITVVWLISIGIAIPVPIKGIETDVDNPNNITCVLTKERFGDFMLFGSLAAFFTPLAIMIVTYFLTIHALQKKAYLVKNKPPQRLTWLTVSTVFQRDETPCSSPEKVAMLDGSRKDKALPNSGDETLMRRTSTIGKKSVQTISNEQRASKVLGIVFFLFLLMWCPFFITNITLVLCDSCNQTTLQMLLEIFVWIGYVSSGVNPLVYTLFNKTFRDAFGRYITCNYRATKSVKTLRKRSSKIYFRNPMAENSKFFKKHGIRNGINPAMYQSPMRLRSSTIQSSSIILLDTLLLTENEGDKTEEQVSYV

[11] = biological target: Voltage-gated inwardly rectifying potassium channel KCNH2 (Homo sapiens, UniProt Q12809); details: hek293; also: in other assays of this panel Not Active means under 50% inhibition at 10 µM
Chain of Voltage-gated inwardly rectifying potassium channel KCNH2 (Q12809 whole entry): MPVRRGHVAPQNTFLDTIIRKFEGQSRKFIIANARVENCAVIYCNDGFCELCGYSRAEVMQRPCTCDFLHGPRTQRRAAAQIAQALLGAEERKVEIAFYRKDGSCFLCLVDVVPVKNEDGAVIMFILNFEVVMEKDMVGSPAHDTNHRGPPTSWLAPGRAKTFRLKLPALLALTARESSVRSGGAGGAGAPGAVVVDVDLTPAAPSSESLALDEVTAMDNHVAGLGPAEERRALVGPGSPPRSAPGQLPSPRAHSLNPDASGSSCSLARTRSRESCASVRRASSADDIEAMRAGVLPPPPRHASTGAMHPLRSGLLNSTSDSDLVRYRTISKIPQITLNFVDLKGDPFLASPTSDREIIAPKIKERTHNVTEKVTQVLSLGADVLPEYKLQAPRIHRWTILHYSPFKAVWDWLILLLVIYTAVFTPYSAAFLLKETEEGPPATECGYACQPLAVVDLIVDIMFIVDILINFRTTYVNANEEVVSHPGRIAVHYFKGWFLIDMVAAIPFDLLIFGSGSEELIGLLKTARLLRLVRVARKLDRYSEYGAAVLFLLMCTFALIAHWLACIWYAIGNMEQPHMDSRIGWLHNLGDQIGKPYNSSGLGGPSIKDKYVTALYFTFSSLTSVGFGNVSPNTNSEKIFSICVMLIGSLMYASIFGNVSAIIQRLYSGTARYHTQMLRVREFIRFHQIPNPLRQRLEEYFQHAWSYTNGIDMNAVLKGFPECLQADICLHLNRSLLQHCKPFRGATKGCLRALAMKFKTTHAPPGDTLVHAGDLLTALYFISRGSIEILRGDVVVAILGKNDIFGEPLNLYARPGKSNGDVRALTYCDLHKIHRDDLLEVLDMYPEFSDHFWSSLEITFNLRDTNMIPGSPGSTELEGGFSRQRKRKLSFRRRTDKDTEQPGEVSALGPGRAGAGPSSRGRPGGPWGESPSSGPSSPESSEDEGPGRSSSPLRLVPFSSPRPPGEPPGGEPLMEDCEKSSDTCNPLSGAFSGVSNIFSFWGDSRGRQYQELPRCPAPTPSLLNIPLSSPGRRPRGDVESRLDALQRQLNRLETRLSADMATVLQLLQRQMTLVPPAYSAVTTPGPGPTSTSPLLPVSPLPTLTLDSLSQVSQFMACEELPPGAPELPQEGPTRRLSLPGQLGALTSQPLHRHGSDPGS

[12] = biological target: T3, Glucocorticoid receptor (Homo sapiens, UniProt P04150); details: hela s3; also: in other assays of this panel Not Active means under 50% inhibition at 10 µM
T3 sequence (P04150 whole entry): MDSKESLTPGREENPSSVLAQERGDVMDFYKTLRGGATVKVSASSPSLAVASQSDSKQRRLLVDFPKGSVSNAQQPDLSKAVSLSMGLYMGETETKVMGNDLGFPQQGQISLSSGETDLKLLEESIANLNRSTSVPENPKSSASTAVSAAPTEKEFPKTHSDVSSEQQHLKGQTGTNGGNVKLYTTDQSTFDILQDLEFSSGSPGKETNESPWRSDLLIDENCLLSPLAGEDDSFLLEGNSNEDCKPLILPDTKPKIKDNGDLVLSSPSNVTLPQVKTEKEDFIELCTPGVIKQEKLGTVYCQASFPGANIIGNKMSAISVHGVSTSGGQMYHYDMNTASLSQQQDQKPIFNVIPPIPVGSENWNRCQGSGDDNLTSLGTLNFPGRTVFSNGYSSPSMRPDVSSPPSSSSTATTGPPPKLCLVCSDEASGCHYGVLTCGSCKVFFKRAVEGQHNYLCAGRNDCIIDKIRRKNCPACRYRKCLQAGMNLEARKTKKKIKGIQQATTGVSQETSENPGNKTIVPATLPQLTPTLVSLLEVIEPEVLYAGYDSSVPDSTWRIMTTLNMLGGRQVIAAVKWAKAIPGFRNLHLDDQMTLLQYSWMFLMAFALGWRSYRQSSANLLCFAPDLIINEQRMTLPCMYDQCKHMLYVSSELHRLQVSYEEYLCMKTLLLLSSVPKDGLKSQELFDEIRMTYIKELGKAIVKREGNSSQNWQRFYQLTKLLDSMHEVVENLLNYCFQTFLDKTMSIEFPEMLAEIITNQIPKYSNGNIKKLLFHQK

[13] = biological target: Cytochrome P450 2D6 (Homo sapiens, UniProt P10635); details: bti-tn-5b1-4; also: in other assays of this panel Not Active means under 50% inhibition at 10 µM
[14] = biological target: Cytochrome P450 3A4 (Homo sapiens, UniProt P08684); details: bti-tn-5b1-4; also: in other assays of this panel Not Active means under 50% inhibition at 10 µM
Chain of Cytochrome P450 3A4 (P08684 whole entry): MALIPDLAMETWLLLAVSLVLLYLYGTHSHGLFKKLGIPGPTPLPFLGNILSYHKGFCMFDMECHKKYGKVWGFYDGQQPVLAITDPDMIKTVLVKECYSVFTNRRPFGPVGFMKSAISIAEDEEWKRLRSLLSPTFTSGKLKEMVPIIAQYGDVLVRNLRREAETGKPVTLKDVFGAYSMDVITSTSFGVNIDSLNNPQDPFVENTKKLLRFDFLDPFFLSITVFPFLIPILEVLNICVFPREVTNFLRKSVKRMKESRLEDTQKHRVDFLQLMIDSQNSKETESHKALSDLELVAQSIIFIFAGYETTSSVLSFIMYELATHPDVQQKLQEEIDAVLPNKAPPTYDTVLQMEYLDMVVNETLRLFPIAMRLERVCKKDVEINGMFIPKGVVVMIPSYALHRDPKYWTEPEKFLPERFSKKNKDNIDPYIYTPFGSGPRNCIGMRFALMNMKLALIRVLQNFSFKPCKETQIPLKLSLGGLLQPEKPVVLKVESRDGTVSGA

Row | Compound | IC50 [1] | Ki [1] | IC50 ([2]; cho-k1) | IC50 [3] | IC50 [4] | Ki [4] | IC50 [5] | IC50 [6] | IC50 [7] | IC50 [8] | Ki [8] | IC50 [9] | Ki [9] | IC50 [10] | IC50 [11] | Ki [11] | IC50 [12] | IC50 [13] | Ki [13] | IC50 [14] | further results
1 | CCOC(=O)[C@H](CCc1ccccc1)N[C@@H](C)C(=O)N1[C@H](C(=O)O)C[C@@H]2CCC[C@@H]21 | Not Active | Not Active | Not Active | Not Active | Not Active | Not Active | Not Active | Not Active | Not Active | Not Active | Not Active | Not Active | Not Active | Not Active | Not Active | Not Active | Not Active | Not Active | Not Active | – | –
2 | COC(=O)c1ccc(O)cc1 [METHYLPARABEN] | Not Active | Not Active | Not Active | – | Not Active | Not Active | Not Active | Not Active | Not Active | Not Active | Not Active | Not Active | Not Active | Not Active | Not Active | Not Active | Not Active | Not Active | Not Active | Not Active | Ki [14]: Not Active
3 | CN1CCN2c3ccccc3Cc3ccccc3C2C1 (stereo unspecified) [MIANSERIN] | – | – | – | – | – | – | Not Active | Not Active | Not Active | Not Active | Not Active | – | – | – | Not Active | Not Active | Not Active | Not Active | Not Active | Not Active | IC50 ([2]; read-out: IC50): 0.32 µM; Ki ([2]; read-out: Ki): 0.23 µM; Ki [14]: Not Active
4 | CC(C)(O)c1ccccc1CC[C@@H](SCC1(CC(=O)O)CC1)c1cccc(/C=C/c2ccc3ccc(Cl)cc3n2)c1 [MONTELUKAST] | – | – | – | – | – | – | Not Active | Not Active | Not Active | Not Active | Not Active | – | – | – | Not Active | Not Active | Not Active | Not Active | Not Active | Not Active | Ki [14]: Not Active
5 | COC(=O)C1=C(C)NC(C)=C(C(=O)OC)C1c1ccccc1[N+](=O)[O-] [NIFEDIPINE] | Not Active | Not Active | Not Active | Not Active | Not Active | Not Active | Not Active | Not Active | Not Active | – | – | Not Active | Not Active | Not Active | – | – | Not Active | – | – | – | –
6 | CC(=O)[C@H]1CC[C@H]2[C@@H]3CCC4=CC(=O)CC[C@]4(C)[C@H]3CC[C@]12C [PROGESTERONE] | Not Active | Not Active | Not Active | Not Active | Not Active | Not Active | Not Active | Not Active | Not Active | Not Active | Not Active | Not Active | Not Active | Not Active | – | – | – | Not Active | Not Active | Not Active | Ki [14]: Not Active
7 | CC(=O)S[C@@H]1CC2=CC(=O)CC[C@]2(C)[C@H]2CC[C@@]3(C)[C@@H](CC[C@@]34CCC(=O)O4)[C@H]12 [SPIRONOLACTONE] | Not Active | Not Active | Not Active | Not Active | Not Active | Not Active | Not Active | Not Active | Not Active | – | – | Not Active | Not Active | Not Active | Not Active | Not Active | – | – | – | Not Active | Ki [14]: Not Active
8 | C=CC[C@@H]1/C=C(\C)C[C@H](C)C[C@H](OC)[C@H]2O[C@@](O)(C(=O)C(=O)N3CCCC[C@H]3C(=O)O[C@H](/C(C)=C/[C@@H]3CC[C@@H](O)[C@H](OC)C3)[C@H](C)[C@@H](O)CC1=O)[C@H](C)C[C@@H]2OC [TACROLIMUS ANHYDROUS] | Not Active | Not Active | Not Active | Not Active | Not Active | Not Active | Not Active | Not Active | Not Active | Not Active | Not Active | Not Active | Not Active | Not Active | Not Active | Not Active | Not Active | Not Active | Not Active | – | –
9 | Cc1ccc(C(=O)C(C)CN2CCCCC2)cc1 (stereo unspecified) [TOLPERISONE] | Not Active | Not Active | Not Active | Not Active | Not Active | Not Active | Not Active | Not Active | Not Active | Not Active | Not Active | Not Active | Not Active | Not Active | Not Active | Not Active | – | Not Active | Not Active | Not Active | Ki [14]: Not Active

Source: ChEMBL document CHEMBL1909046, “DrugMatrix in vitro pharmacology data”
